According to ChEMBL document CHEMBL5252577, “Amphiphilic Polyamine α-Synuclein Aggregation Inhibitors from the Sponge Aaptos lobata” (J Nat Prod, 2023):
Converted amounts (≈) assume the structure as drawn.

Experiments:
Staphylococcus aureus [1] = test: Antibacterial activity against methicillin-sensitive Staphylococcus aureus ATCC 25923 assessed as bacterial growth inhibition resazurin dye based microplate analysis; assay type: functional
[2] = Cytotoxicity against human WPMY-1 cells assessed as reduction in cell viability measured for 48 hrs by resazurin dye based assay; assay type: toxicity
Staphylococcus aureus [3] = test: Antibacterial activity against methicillin-resistant Staphylococcus aureus ATCC 43300 assessed as bacterial growth inhibition resazurin dye based microplate analysis; assay type: functional
Pseudomonas aeruginosa = test: Antibacterial activity against Pseudomonas aeruginosa ATCC 27853 assessed as bacterial growth inhibition resazurin dye based microplate analysis; assay type: functional
PC-3 = test: Cytotoxicity against human PC-3 cells assessed as reduction in cell viability measured for 48 hrs by resazurin dye based assay; assay type: functional; settings: PC-3, 48 h

## CCCCCCCCCC(=O)N(C)CCCNCCCNCCCNCCCCNCCCNCCCNCCCN(C)C(=O)CCCCCCCC(C)C
Staphylococcus aureus [1]
  MIC90: 32 µg/mL (≈ 41 µM)
[2]
  IC50 at 48 h: 4.1 µM
Staphylococcus aureus [3]
  MIC90: 32 µg/mL (≈ 41 µM)
Pseudomonas aeruginosa
  MIC90: 64 µg/mL (≈ 81.9 µM)
PC-3
  IC50: 4.1 µM

## CCCCCCCCCC(=O)N(C)CCCNCCCNCCCNCCCCNCCCNCCCNCCCN(C)C(=O)CCCCCCC(C)C
Staphylococcus aureus [1]
  MIC90: 8 µg/mL (≈ 10.4 µM)
[2]
  IC50 at 48 h: 4.3 µM
Staphylococcus aureus [3]
  MIC90: 16 µg/mL (≈ 20.9 µM)
Pseudomonas aeruginosa
  MIC90: 32 µg/mL (≈ 41.7 µM)
PC-3
  IC50: 3.4 µM

## COc1cccc2c1C(=O)c1c(O)c3c(c(O)c1C2=O)C[C@@](O)(C(=O)CO)C[C@@H]3O[C@H]1C[C@H](N)[C@H](O)[C@H](C)O1 [DOXORUBICIN]
[2]
  IC50 at 48 h: 0.7 µM
PC-3
  IC50: 0.6 µM

## CC[C@H]1OC(=O)[C@H](C)[C@@H](O[C@H]2C[C@@](C)(OC)[C@@H](O)[C@H](C)O2)[C@H](C)[C@@H](O[C@@H]2O[C@H](C)C[C@H](N(C)C)[C@H]2O)[C@](C)(O)C[C@@H](C)C(=O)[C@H](C)[C@@H](O)[C@]1(C)O [ERYTHROMYCIN]
Staphylococcus aureus [1]
  MIC90: 2 µg/mL (≈ 2.73 µM)

## CC(=O)O[C@H]1C[C@@]2(C)[C@@H](C[C@@H](O)[C@H]3[C@@]4(C)CC[C@@H](O)[C@@H](C)[C@@H]4CC[C@@]32C)/C1=C(\CCC=C(C)C)C(=O)O [FUSIDIC ACID]
Staphylococcus aureus [3]
  MIC90: 0.25 µg/mL (≈ 0.484 µM)

## NC[C@H]1O[C@H](O[C@H]2[C@H](O)[C@@H](O[C@H]3O[C@H](CO)[C@@H](O)[C@H](N)[C@H]3O)[C@H](N)C[C@@H]2N)[C@H](N)C[C@@H]1O [TOBRAMYCIN]
Pseudomonas aeruginosa
  MIC90: 1 µg/mL (≈ 2.14 µM)
